Measured values as given in ChEMBL document CHEMBL4507305, “Data for DCP probe TP-024” (2021).

Assays:
[1] = system: Tyrosine-protein kinase ABL1 (Homo sapiens), P00519 [E255K]; details: Compound concentration 1000.0 nM
[2] = system: Tyrosine-protein kinase ABL1 (Homo sapiens), P00519 [F317L]; details: Compound concentration 1000.0 nM
[3] = system: Tyrosine-protein kinase ABL1 (Homo sapiens), P00519 [Q252H]; details: Compound concentration 1000.0 nM
[4] = biological target: Activin receptor type-2B (Homo sapiens) (UniProt Q13705); details: Compound concentration 1000.0 nM
[5] = biological target: RAC-beta serine/threonine-protein kinase (Homo sapiens) (UniProt P31751); details: Compound concentration 1000.0 nM
[6] = biological target: 5'-AMP-activated protein kinase catalytic subunit alpha-2 (Homo sapiens) (UniProt P54646); details: Compound concentration 1000.0 nM
[7] = biological target: Tyrosine-protein kinase receptor UFO (Homo sapiens) (UniProt P30530); details: Compound concentration 1000.0 nM
[8] = biological target: Protein-tyrosine kinase 6 (Homo sapiens) (UniProt Q13882); details: Compound concentration 1000.0 nM
[9] = biological target: Tyrosine-protein kinase BTK (Homo sapiens) (UniProt Q06187); details: Compound concentration 1000.0 nM
Chain of Tyrosine-protein kinase BTK (Homo sapiens) (Q06187 whole entry): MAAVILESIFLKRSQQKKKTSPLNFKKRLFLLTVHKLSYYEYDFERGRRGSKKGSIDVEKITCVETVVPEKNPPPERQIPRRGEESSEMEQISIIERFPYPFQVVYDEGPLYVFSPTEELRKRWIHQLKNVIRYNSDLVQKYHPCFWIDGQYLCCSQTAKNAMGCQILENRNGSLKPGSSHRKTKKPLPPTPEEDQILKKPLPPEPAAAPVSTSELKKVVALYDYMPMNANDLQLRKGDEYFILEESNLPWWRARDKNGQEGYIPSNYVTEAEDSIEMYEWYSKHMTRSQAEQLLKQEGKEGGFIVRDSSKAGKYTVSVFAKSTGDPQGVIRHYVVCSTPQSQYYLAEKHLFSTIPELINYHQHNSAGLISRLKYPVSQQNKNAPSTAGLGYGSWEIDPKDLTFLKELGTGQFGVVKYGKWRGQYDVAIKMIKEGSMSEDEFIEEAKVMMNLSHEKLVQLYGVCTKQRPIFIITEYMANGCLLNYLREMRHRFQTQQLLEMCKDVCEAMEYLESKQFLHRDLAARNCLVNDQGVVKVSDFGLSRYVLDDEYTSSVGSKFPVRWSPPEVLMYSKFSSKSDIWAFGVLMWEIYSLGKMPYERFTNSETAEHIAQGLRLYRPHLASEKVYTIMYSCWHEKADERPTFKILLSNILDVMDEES

[10] = biological target: Calcium/calmodulin-dependent protein kinase kinase 1 (Homo sapiens) (UniProt Q8N5S9); details: Compound concentration 1000.0 nM
Chain of Calcium/calmodulin-dependent protein kinase kinase 1 (Homo sapiens) (Q8N5S9 whole entry, looked up): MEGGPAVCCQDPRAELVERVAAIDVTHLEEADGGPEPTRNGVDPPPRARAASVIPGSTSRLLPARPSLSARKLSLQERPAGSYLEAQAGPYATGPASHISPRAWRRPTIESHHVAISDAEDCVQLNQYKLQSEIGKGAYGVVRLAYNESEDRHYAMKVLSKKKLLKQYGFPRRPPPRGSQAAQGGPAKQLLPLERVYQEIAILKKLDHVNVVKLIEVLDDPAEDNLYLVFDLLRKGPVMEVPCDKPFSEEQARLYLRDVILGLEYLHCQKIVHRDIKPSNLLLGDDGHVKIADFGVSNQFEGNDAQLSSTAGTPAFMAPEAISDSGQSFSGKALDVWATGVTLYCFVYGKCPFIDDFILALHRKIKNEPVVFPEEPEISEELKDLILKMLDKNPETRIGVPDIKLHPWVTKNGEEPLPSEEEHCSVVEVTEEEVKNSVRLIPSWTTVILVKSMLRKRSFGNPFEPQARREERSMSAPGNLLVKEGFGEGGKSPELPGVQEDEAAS

[11] = biological target: Calcium/calmodulin-dependent protein kinase kinase 2 (Homo sapiens) (UniProt Q96RR4); details: Compound concentration 1000.0 nM
[12] = biological target: Cyclin-dependent kinase 3 (Homo sapiens) (UniProt Q00526); details: Compound concentration 1000.0 nM
[13] = biological target: Macrophage colony-stimulating factor 1 receptor (Homo sapiens) (UniProt P07333); details: Compound concentration 1000.0 nM
Chain of Macrophage colony-stimulating factor 1 receptor (Homo sapiens) (P07333 whole entry, canonical isoform): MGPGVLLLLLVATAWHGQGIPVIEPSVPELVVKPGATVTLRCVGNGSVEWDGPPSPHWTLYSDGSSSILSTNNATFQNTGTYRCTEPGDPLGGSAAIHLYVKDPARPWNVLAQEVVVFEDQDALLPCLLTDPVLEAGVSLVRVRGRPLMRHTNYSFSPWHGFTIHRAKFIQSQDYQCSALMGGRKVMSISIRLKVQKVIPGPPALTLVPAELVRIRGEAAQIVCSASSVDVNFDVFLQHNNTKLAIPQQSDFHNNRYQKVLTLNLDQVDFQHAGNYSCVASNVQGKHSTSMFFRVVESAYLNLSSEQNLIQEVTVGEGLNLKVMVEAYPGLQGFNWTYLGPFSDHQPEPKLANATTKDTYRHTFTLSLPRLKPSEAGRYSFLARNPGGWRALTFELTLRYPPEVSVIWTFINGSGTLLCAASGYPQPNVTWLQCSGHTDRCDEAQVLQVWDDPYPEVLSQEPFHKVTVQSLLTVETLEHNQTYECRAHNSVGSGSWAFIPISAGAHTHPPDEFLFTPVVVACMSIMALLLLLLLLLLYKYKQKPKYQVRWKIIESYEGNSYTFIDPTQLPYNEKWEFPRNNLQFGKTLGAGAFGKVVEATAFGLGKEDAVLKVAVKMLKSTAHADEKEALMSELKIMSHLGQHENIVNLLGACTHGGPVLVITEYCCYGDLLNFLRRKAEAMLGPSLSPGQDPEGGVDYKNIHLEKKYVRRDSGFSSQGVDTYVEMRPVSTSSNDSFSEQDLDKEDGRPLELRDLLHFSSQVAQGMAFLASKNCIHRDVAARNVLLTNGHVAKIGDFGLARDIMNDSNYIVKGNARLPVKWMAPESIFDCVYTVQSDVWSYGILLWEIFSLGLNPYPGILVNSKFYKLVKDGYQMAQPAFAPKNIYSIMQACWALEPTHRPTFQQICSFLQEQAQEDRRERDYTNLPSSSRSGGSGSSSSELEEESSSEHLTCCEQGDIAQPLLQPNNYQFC

[14] = biological target: Casein kinase I isoform gamma-1 (Homo sapiens) (UniProt Q9HCP0); details: Compound concentration 1000.0 nM
[15] = biological target: Casein kinase I isoform gamma-2 (Homo sapiens) (UniProt P78368); details: Compound concentration 1000.0 nM
[16] = biological target: Death-associated protein kinase 3 (Homo sapiens) (UniProt O43293); details: Compound concentration 1000.0 nM
[17] = system: Epidermal growth factor receptor (Homo sapiens), P00533 [UNDEFINED MUTATION]; details: Compound concentration 1000.0 nM
[18] = system: Epidermal growth factor receptor (Homo sapiens), P00533 [L858R]; details: Compound concentration 1000.0 nM
[19] = biological target: Ephrin type-A receptor 5 (Homo sapiens) (UniProt P54756); details: Compound concentration 1000.0 nM
[20] = biological target: Receptor tyrosine-protein kinase erbB-4 (Homo sapiens) (UniProt Q15303); details: Compound concentration 1000.0 nM
[21] = biological target: Fibroblast growth factor receptor 3 (Homo sapiens) (UniProt P22607); details: Compound concentration 1000.0 nM
[22] = biological target: Glycogen synthase kinase-3 alpha (Homo sapiens) (UniProt P49840); details: Compound concentration 1000.0 nM
Chain of Glycogen synthase kinase-3 alpha (Homo sapiens) (P49840 2-483 limits assumed): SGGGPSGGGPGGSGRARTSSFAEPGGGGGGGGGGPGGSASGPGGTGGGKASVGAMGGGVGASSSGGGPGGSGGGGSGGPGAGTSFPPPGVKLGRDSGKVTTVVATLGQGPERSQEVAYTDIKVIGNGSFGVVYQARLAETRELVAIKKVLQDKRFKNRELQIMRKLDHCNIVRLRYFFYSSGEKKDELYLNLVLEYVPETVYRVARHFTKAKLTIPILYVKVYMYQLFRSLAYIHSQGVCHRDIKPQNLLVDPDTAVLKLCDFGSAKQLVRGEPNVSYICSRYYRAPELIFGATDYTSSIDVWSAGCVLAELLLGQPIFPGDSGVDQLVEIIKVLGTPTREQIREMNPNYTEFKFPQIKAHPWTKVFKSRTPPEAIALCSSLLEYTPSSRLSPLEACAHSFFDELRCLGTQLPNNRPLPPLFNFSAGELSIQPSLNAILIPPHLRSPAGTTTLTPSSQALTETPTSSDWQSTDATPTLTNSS

[23] = biological target: Glycogen synthase kinase-3 beta (Homo sapiens) (UniProt P49841); details: Compound concentration 1000.0 nM
[24] = biological target: Homeodomain-interacting protein kinase 3 (Homo sapiens) (UniProt Q9H422); details: Compound concentration 1000.0 nM
[25] = biological target: Mast/stem cell growth factor receptor Kit (Homo sapiens) (UniProt P10721); details: Compound concentration 1000.0 nM
[26] = biological target: LIM domain kinase 1 (Homo sapiens) (UniProt P53667); details: Compound concentration 1000.0 nM
Chain of LIM domain kinase 1 (Homo sapiens) (P53667 whole entry, looked up, the tested form may be a part): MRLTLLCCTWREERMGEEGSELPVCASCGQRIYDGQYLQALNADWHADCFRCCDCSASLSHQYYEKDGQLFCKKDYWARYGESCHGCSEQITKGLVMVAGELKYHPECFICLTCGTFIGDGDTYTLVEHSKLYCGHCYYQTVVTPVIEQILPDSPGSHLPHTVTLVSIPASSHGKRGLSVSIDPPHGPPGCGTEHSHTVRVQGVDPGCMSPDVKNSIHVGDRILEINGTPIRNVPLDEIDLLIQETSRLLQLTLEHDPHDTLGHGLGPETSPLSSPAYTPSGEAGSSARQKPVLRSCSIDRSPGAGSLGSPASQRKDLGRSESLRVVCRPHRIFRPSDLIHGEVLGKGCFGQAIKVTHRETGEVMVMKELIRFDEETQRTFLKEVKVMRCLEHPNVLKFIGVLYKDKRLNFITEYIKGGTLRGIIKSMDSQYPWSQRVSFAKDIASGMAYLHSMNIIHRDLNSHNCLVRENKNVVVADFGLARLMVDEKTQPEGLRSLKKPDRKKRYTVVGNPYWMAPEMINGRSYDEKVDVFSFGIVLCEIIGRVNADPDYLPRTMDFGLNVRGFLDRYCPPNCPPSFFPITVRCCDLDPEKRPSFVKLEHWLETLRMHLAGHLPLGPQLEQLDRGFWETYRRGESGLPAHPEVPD

[27] = biological target: Serine/threonine-protein kinase 26 (Homo sapiens) (UniProt Q9P289); details: Compound concentration 1000.0 nM
[28] = biological target: Serine/threonine-protein kinase Nek6 (Homo sapiens) (UniProt Q9HC98); details: Compound concentration 1000.0 nM
[29] = biological target: Mitogen-activated protein kinase 11 (Homo sapiens) (UniProt Q15759); details: Compound concentration 1000.0 nM
[30] = system: Phosphatidylinositol 4,5-bisphosphate 3-kinase catalytic subunit alpha isoform (Homo sapiens), P42336 [E545K]; details: Compound concentration 1000.0 nM
[31] = system: Phosphatidylinositol 4,5-bisphosphate 3-kinase catalytic subunit alpha isoform (Homo sapiens), P42336 [I800L]; details: Compound concentration 1000.0 nM
[32] = biological target: Serine/threonine-protein kinase PRP4 homolog (Homo sapiens) (UniProt Q13523); details: Compound concentration 1000.0 nM
[33] = biological target: Proto-oncogene tyrosine-protein kinase receptor Ret (Homo sapiens) (UniProt P07949); details: Compound concentration 1000.0 nM
[34] = system: Proto-oncogene tyrosine-protein kinase receptor Ret (Homo sapiens), P07949 [M918T]; details: Compound concentration 1000.0 nM
Chain of Proto-oncogene tyrosine-protein kinase receptor Ret (Homo sapiens), P07949 [M918T] (P07949 whole entry M918T): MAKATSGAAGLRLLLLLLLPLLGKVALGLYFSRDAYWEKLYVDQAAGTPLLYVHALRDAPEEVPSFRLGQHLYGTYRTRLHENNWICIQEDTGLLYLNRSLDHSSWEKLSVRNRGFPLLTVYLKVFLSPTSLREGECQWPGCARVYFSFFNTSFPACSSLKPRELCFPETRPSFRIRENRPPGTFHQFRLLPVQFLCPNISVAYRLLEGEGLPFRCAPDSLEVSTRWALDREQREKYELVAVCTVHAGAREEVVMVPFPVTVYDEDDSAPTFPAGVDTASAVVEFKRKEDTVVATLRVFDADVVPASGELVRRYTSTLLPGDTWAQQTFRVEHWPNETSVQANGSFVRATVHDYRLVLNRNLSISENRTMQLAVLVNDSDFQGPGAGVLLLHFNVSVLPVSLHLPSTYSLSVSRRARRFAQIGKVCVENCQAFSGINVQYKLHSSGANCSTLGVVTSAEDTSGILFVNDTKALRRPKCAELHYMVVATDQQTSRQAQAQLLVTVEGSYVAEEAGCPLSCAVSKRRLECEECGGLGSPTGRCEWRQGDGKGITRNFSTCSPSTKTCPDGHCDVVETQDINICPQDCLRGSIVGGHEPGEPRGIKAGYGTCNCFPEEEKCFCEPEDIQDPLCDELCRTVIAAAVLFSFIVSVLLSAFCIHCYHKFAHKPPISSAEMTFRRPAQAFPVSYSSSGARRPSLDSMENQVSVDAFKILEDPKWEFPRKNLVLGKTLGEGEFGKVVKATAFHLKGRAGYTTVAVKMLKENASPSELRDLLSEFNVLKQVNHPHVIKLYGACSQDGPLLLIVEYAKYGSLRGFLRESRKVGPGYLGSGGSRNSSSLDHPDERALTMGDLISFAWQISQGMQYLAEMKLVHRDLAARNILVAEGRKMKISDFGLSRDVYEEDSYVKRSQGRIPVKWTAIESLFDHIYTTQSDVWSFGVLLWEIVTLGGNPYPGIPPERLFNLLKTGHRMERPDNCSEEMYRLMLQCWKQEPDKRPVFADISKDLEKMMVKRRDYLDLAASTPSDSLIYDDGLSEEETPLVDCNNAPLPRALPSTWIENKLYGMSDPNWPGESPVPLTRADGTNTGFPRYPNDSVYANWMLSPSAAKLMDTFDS

[35] = biological target: Serine/threonine-protein kinase 16 (Homo sapiens) (UniProt O75716); details: Compound concentration 1000.0 nM
Chain of Serine/threonine-protein kinase 16 (Homo sapiens) (O75716 whole entry): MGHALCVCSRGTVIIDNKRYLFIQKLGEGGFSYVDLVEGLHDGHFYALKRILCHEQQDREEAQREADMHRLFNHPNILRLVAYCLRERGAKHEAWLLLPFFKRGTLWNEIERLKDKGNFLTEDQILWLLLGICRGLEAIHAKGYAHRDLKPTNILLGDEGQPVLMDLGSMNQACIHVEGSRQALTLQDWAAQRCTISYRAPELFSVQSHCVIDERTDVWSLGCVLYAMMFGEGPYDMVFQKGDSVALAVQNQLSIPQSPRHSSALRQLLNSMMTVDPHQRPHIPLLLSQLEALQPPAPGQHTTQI

[36] = biological target: Activated CDC42 kinase 1 (Homo sapiens) (UniProt Q07912); details: Compound concentration 1000.0 nM
[37] = biological target: High affinity nerve growth factor receptor (Homo sapiens) (UniProt P04629); details: Compound concentration 1000.0 nM
[38] = biological target: Testis-specific serine/threonine-protein kinase 1 (Homo sapiens) (UniProt Q9BXA7); details: Compound concentration 1000.0 nM
Chain of Testis-specific serine/threonine-protein kinase 1 (Homo sapiens) (Q9BXA7 whole entry): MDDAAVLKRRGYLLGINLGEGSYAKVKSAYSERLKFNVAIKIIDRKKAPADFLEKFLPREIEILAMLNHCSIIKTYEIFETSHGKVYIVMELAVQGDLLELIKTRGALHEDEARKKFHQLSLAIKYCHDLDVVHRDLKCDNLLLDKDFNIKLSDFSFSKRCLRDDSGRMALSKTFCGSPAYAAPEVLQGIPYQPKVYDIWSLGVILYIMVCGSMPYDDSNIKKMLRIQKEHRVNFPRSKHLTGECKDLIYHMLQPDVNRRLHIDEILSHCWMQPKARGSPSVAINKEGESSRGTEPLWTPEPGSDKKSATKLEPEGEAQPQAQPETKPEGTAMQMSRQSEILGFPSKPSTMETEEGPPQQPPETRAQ

[39] = biological target: Wee1-like protein kinase (Homo sapiens) (UniProt P30291); details: Compound concentration 1000.0 nM
[40] = biological target: Serine/threonine-protein kinase 32A (Homo sapiens) (UniProt Q8WU08); details: Compound concentration 1000.0 nM
[41] = biological target: Serine/threonine-protein kinase 32B (Homo sapiens) (UniProt Q9NY57); details: Compound concentration 1000.0 nM
[42] = biological target: Beta-2 adrenergic receptor (Homo sapiens) (UniProt P07550); details: Compound concentration 10.0 uM
[43] = biological target: Muscarinic acetylcholine receptor M5 (Homo sapiens) (UniProt P08912); details: Compound concentration 10.0 uM
[44] = biological target: Beta-3 adrenergic receptor (Homo sapiens) (UniProt P13945); details: Compound concentration 10.0 uM
[45] = biological target: Sigma intracellular receptor 2 (Homo sapiens) (UniProt Q5BJF2); details: Compound concentration 10.0 uM

Cc1nc(Cc2cccc(C(F)(F)F)c2)sc1-c1ccc(C(N)=O)nc1 [TP-024n]
inactive: residual activity [1] 85% | residual activity [2] 93% | residual activity [3] 100% | residual activity [4] 86% | residual activity [5] 81% | residual activity [6] 96% | residual activity [7] 100% | residual activity [8] 100% | residual activity [9] 100% | residual activity [10] 98% | residual activity [11] 91% | residual activity [12] 88% | residual activity [13] 85% | residual activity [14] 97% | residual activity [15] 82% | residual activity [16] 88% | residual activity [17] 100% | residual activity [18] 100% | residual activity [19] 100% | residual activity [20] 74% | residual activity [21] 100% | residual activity [22] 82% | residual activity [23] 100% | residual activity [24] 100% | residual activity [25] 95% | residual activity [26] 100% | residual activity [27] 83% | residual activity [28] 90% | residual activity [29] 95% | residual activity [30] 77% | residual activity [31] 56% | residual activity [32] 70% | residual activity [33] 100% | residual activity [34] 95% | residual activity [35] 100% | residual activity [36] 100% | residual activity [37] 64% | residual activity [38] 54% | residual activity [39] 96% | residual activity [40] 76% | residual activity [41] 69% | inhibition [42] 2.07% | inhibition [43] 11.2% | inhibition [44] -1.63% | inhibition [45] -8.52%

Cc1cc(-n2nc(Cc3cc(F)cc(C(F)(F)F)c3)nc2C)ccc1C(N)=O [TP-024]
inactive: residual activity [1] 93% | residual activity [2] 100% | residual activity [3] 100% | residual activity [4] 100% | residual activity [5] 100% | residual activity [6] 100% | residual activity [7] 99% | residual activity [8] 100% | residual activity [9] 100% | residual activity [10] 100% | residual activity [11] 100% | residual activity [12] 100% | residual activity [13] 100% | residual activity [14] 100% | residual activity [15] 79% | residual activity [16] 87% | residual activity [17] 100% | residual activity [18] 100% | residual activity [19] 100% | residual activity [20] 67% | residual activity [21] 100% | residual activity [22] 97% | residual activity [23] 98% | residual activity [24] 100% | residual activity [25] 95% | residual activity [26] 100% | residual activity [27] 100% | residual activity [28] 95% | residual activity [29] 90% | residual activity [30] 71% | residual activity [31] 70% | residual activity [32] 54% | residual activity [33] 96% | residual activity [34] 100% | residual activity [35] 91% | residual activity [36] 100% | residual activity [37] 97% | residual activity [38] 90% | residual activity [39] 100% | residual activity [40] 85% | residual activity [41] 100% | inhibition [42] -1.39% | inhibition [43] -2.07% | inhibition [44] 4.48% | inhibition [45] -7.3%
